# Measurements reported in patent US20250368687A1, “SHORT SYNTHETIC PEPTIDES AND USES THEREOF IN THE TREATMENT OF ENTEROVIRUS INFECTION” (CITY UNIVERSITY OF HONG KONG, priority 2024, published 2025).
# Legend:
# [1] = system: EV-A71; assay: EV-A71-induced cytopathic effect (CPE) on RD cells; format: cell-based; conditions: EV-A71 MOI 1 for 12 hours
# Procedure: FIGS. 10A-10K. Peptide S78 inhibited EV-A71 replication and propagation. (FIG. 10A) RD cells were pre-treated with peptides S78 or for 2 hours and infected with EV-A71 at the MOI of 10 for 6 hours. Cell lysates were collected for western blot assay. Hsp27 phosphorylation on Ser 15, 78, 82 were detected by specific antibodies. β-Actin were detected as internal control. (FIG. 10B) Densitometric analysis of FIG. 9A. (FIG. 10C) HEK 293T cells were pre-treated with peptides S78 or S78A at the concentration of 25 μM for 2 hours and then co-transfected with Hsp27-WT plasmid (800 ng), pIRES reporter plasmid (200 ng) and 2A^pro-expressing plasmid or 2AC110A-expressing plasmid (200 ng) for 24 h, then the luciferase activity was measured. (FIG. 10D-10E) RD cells were treated with peptides S78 or S78A and then infected with EV-A71. EV-A71 VP1 were detected. (FIG. 10F) RD cells were treated with peptides and then infected with EV-A71 at the MOI of 1 for 12 hours. The EV-A71-induced CPE was captured. (FIG. 10G-10H) Intracellular viral RNA was extracted and quantified by qPCR. (FIG. 10I) Densitometric analysis FIG. 9D-E. (FIG. 10J) RD cells were treated with peptides S78 or and then infected with EV-A71 at the MOI of 1 for 12 hours. Extracellular viral RNA was extracted and quantified by qPCR. (FIG. 10K) Viral titration was calculated by TCID50. […] Data are expressed as mean ±SD. […]
# [2] = CCK-8 assay; format: cell-based; conditions: human; RD cells, data not shown
# Procedure: (§1) RD cells were seeded in 96-well cell plates (1×10^4/well) and placed in the 5% CO2 incubator for 1 day. Then the cells were treated with peptides for 2 days. 90 μl medium and 10 μl of CCK-8 (BioSharp, BS350B) was added to each well of the 96-well plate, which were incubated at 37° C. for 1 h. A microplate reader (BioTek, Synergy H1) was used to measure the OD value of each well at 450 nm.
# [3] = system: RD cells; assay: CCK-8 assay; format: cell-based; conditions: data not shown
# Procedure: as §1
# [4] = system: p38 MAPK; conditions: background statement; cited from earlier work
# [5] = system: EV-A71 IRES activity; assay: Dual-luciferase IRES reporter assay in RD cells; format: cell-based; conditions: 2 μM for 2 h, RD cells co-transfected with 2Apro and pIRES reporter plasmids 24 h
# Procedure: FIGS. 6A-6C Ser78 phosphorylation-deficient Hsp27 suppresses the viral IRES activity. (FIG. 6A) RD cells were pretreated with 2 μM SB203580 for 2 h, then co-transfected with a 2A^pro-expressing plasmid (200 ng) and pIRES reporter plasmid (200 ng) for 24 h, then the luciferase activity was measured. (FIG. 6B) HEK 293T cells were co-transfected with Hsp27 (WT, 3A, S15A, S78A, and S82A) plasmid (800 ng), pIRES reporter plasmid (200 ng) and 2A^pro-expressing plasmid (200 ng) for 24 h, then the luciferase activity was measured. (FIG. 6C) HEK 293T cells were co-transfected with Hsp27 (WT, 3A, S15A, S78A, 3D S15D, and S78D) plasmid (800 ng), pIRES reporter plasmid (200 ng) and 2A^C110A-expressing plasmid (200 ng) for 24 h, then the luciferase activity was measured. Statistical analyses were carried out using Student's t-test. *: p<0.05, **: p<0.01, ***: p<0.001. Data are expressed as mean ±SD.
# HEK 293T cells were seeded in 24-wells, and then co-transfected with plasmids to simultaneously express 2A^pro (200 ng), pIRES reporter (200 ng), and the wild-type Hsp27 or its mutants (800 ng). […] The Renilla luciferase (RLuc) and Firefly luciferase (FLuc) activity were determined by using a dual-luciferase reporter assay (Promega) according to the manufacturer's instructions in a Lumat LB9507 bioluminometer. […]
Compound,protection from EV-A71-induced CPE [1],CC50 at 2 days [2] [µM],other results
Ac-RKKRRQRRRAYSRALARQLSS-NH2 [S78A],mild protection,> 600,–
"Ac-RKKRRQRRRYSREANQPKPSPKRESGEE-NH2 [NC, reference compound]",–,–,CC50 (in words) [3]: high
Ac-RKKRRQRRRAYSRALSRQLSS-NH2 [S78],dramatically protected,> 600,–
"C[S+]([O-])c1ccc(-c2nc(-c3ccncc3)c(-c3ccc(F)cc3)[nH]2)cc1 (centres unmarked) [SB203580, reference compound]",–,–,"secretion of inflammatory factors (such as IL-6, IL-10, and TNF-α) [4]: inhibited; viral replication [4]: reduced; reduction of IRES activity [5]: 32%"
